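96-well plates; 48 h exposure; 5 concentrations. Endpoints by linear interpolation between flanking doses. Not reached: highest tested concentration assigned. GI50: concentration for 50% inhibition of growth. TGI: total growth inhibition.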
What was measured:
Experiment in all cases: inhibition of tumour cell growth, NCI panel, 48 h
LOX IMVI melanoma = test system: LOX IMVI melanoma
SF-295 CNS = test system: SF-295 CNS
ACHN renal = test system: ACHN renal
HT29 colon = test system: HT29 colon
MDA-MB-231 breast = test system: MDA-MB-231 breast
SN12C renal = test system: SN12C renal
SR leukemia = test system: SR leukemia
SW-620 colon = test system: SW-620 colon
786-0 renal = test system: 786-0 renal
SK-MEL-28 melanoma = test system: SK-MEL-28 melanoma

SMILES	GI50 (LOX IMVI melanoma) [µM]	TGI (LOX IMVI melanoma) [µM]	GI50 (SF-295 CNS) [µM]	TGI (SF-295 CNS) [µM]	GI50 (ACHN renal) [µM]	TGI (ACHN renal) [µM]	GI50 (HT29 colon) [µM]	TGI (HT29 colon) [µM]	GI50 (MDA-MB-231 breast) [µM]	TGI (MDA-MB-231 breast) [µM]	GI50 (SN12C renal) [µM]	TGI (SN12C renal) [µM]	GI50 (SR leukemia) [µM]	TGI (SR leukemia) [µM]	GI50 (SW-620 colon) [µM]	TGI (SW-620 colon) [µM]	GI50 (786-0 renal) [µM]	TGI (786-0 renal) [µM]	GI50 (SK-MEL-28 melanoma) [µM]	TGI (SK-MEL-28 melanoma) [µM]
COc1ccc(Nc2c3ccccc3nc3[nH]c4ccccc4c23)cc1	6.44	29.5	8.9	> 50	7.36	25	16.6	> 50	14.5	> 50	18.5	> 50	3.84	> 50	9.89	> 50	11.4	49.2	18.5	> 50
O=[N+]([O-])c1ccc(S(=O)(=O)Cc2ccccc2)c2nonc12		38.2		> 100		46.1		36.7		50.7		28.5		> 100		48.6		37.5		38.5
CN1C(Cl)=NS(=O)(=O)c2ccccc21		> 100		> 100		> 100		> 100		> 100		> 100		> 100		> 100		> 100		> 100
CCc1nc(N)nc(N)c1-c1ccc(Cl)c(N=CN(C)C)c1		> 100		> 100		> 100		> 100		> 100		> 100		> 83.4		> 100		> 100		> 100
O=C1OC(c2ccccc2)=N/C1=C\c1cccc(F)c1		45.6		> 100		> 100		> 100		> 100		> 100		56.4		> 100		> 100		> 100
C=CS(=O)(=O)CCN1CC1		> 10		> 10		> 10		> 10		> 10		> 10		> 10		> 10		> 10		> 10
CCOC(=O)c1c(C)c(C)n2c1NC(=O)C2		> 100		> 100		> 100		> 100		> 100		> 100		> 100		> 100		98.9		> 100
CC1=C(/C=C/C(C)=C/C=C/C(C)=C/CO)C(C)(C)CCC1		43.5		58.3		> 100		> 100		78.5		60.8		38.3		38.8		34.2		48.5
Cn1c(=O)c(Oc2ccc(F)cc2F)cc2cnc(NCCS(C)(=O)=O)nc21	> 25	> 25	> 25	> 25	> 25	> 25	> 25	> 25	> 25	> 25	> 25	> 25	> 25	> 25	> 25	> 25	> 25	> 25	> 25	> 25
COc1cc2c(c(OC3OC(CO)C(O)C(O)C3O)c1)C(=O)CC(c1ccc(O)cc1)O2 (centres undefined)		> 100		> 100		> 100		> 100		> 100		> 100		> 100		> 100		> 100		> 100
COc1ccc(-c2nn(-c3cccc(NC(=O)c4ccc(N5CCOCC5)c(C(F)(F)F)c4)c3)cc2-c2ccncc2)cc1Cl	9.98	> 50	2.31	> 50	10.2	> 50	1.72	> 50	2.29	> 50	> 50	> 50	1.62	> 50	21.3	> 50	1.51	27.6	9.97	> 50
C=C1c2c(Cl)ccc(O)c2C(O)=C2C(=O)[C@]3(O)C(O)=C(C(N)=O)C(=O)[C@@H](N(C)C)[C@@H]3[C@@H](O)[C@H]12	0.924	3.59	1.19	5	1.37	> 50	1.55	6.18	1.07	2.93	1.38	12.4	1.58	> 50	1.5	> 50	1.17	5.22	1.08	4.45
CCn1c2ccccc2c2cc(C(O)c3cccc4ncccc34)ccc21 (centres undefined)	0.0631	13.4	0.0335	22.1	0.0715	41.9	0.0357	1.66	0.128	11.4	0.0591	6.24	0.0248		0.0399	> 100	0.0559	7.29	3.47	> 100
Cn1cnc([N+](=O)[O-])c1Sc1ncn[nH]1	> 100	> 100	> 100	> 100	76.1	> 100	> 100	> 100	> 100	> 100	> 100	> 100	35.1	> 100	61.1	> 100	> 100	> 100	> 100	> 100
CCN(CC)CCOc1ccc(C(=O)/C=C\c2ccc(Cl)cc2Cl)cc1	1.78	3.6	8.7	22.3	4.73	17.8	2.06	5.62	4.92	20.1	6.52	21.9	1.69	5.34	1.87	4.36	6.44	20.3	2.55	7.75
O=C1OC(CN2CCOCC2)CN1/N=C/c1ccc([N+](=O)[O-])o1 (centres undefined)		59.6		> 100		> 100		> 100		> 100		92		> 100		> 100		> 100		> 100
CC(C)CCN[C@@H]1CCc2cc(O)c(N3CC(=O)NS3(=O)=O)c(F)c2C1	52.7	> 100	> 100	> 100	> 100	> 100	> 100	> 100	> 100	> 100	> 100	> 100	1.78	> 100	> 100	> 100	> 100	> 100	> 100	> 100
